Data as given in patent publication US11352405B2, “GLP-1/glucagon receptor agonists in the treatment of fatty liver disease and steatohepatitis” (SANOFI, priority 2017, dated 2022).
Starred links: 1 amine or outer side, 2 acyl side, 3 side chain; linkers in the order of their positions; H or OH if unused. Non-standard residues stand in square brackets, D forms with d. Groups on a side chain read outwards from the residue. No end group written: not given here. Stea = stearoyl, (S)-4-carboxy-4-octadecanoylamino-butyryl on Lys via γGlu; γGlu = O=C(O)[C@H](CCC(=O)[*:2])N[*:1]

Tests used:
[1] = system: mice with AMLN-diet-induced NASH; assay: murine diet-induced NASH model (AMLN diet), eight-week treatment; type: in vivo, C57BL/6J mice
From the text: Test compounds were investigated in a mouse model of NASH (murine diet-induced NASH model) as described in Kristiansen et al (World Journal of Hepatology 2016, vol. 8, pp. 673-684). C57BL/6J mice were given ad libitum access to a diet (D09100301, Research Diet, United States) high in fat (40%, of these 18% trans-fat), carbohydrates (40%, of these 20% fructose) and cholesterol (2%) that has previously been described as AMLN diet ([…] et al., Am J Physiol Gastrointest Liver Physiol 2013, vol. 305, pp. G483-G495). A control group was kept on regular rodent chow (Altromin 1324, Brogaarden, Denmark). After 26 weeks on the diet, a liver biopsy was performed for histological assessment of NASH and fibrosis at baseline. For this purpose, about 100 mg liver tissue were collected from the left lateral lobe, fixed overnight in 4% paraformaldehyde, paraffin-embedded and sectioned (3 μm thickness). For histological assessment, sections were stained with hematoxylin, eosin or Sirius Red and followed by analysis with Visiomorph software (Visiopharm, Denmark). Histological scoring was performed by a pathologist blinded to the study. NAFLD activity score and fibrosis score were determined according to the clinical criteria outlined by Kleiner et al (Hepatology 2005, […], pp. 1313-1321). Animals were randomized into different treatment groups according to body weight and extent of fibrosis. Treatment period was eight weeks during which animals remained on the AMLN diet. Compounds were given by once-daily or twice-daily subcutaneous injection. Vehicle-treated animals on AMLN diet and non-treated animals on regular rodent chow were included as controls. Group sizes were between 8 and 14 animals. After treatment, terminal liver samples were collected and analysed as for the pre-biopsy. Dual-agonistic GLP1R/GCGR agonistic peptides were investigated in a murine model of NASH as described in the methods section. Treatment duration was eight weeks over which animals remained on the NASH-inducing AMLN diet. The GLP1R-specific agonist liraglutide (SEQ ID NO.: 4) was included as a reference compound. In the diet-induced murine NASH model, compounds were administered at the following doses (all via subcutaneous injections): SEQ ID NO.: 2 10 μg/kg b.i.d., SEQ ID NO.:3 30 μg/kg q.d. in comparison to liraglutide (SEQ ID NO.: 4) at 200 μg/kg q.d., SEQ ID NO.: 1 10 μg/kg b.i.d. or 30 μg/kg b.i.d. in comparison to liraglutide (SEQ ID NO.: 4) at 100 μg/kg b.i.d.

[2] = biological target: human GLP-1 receptor (Homo sapiens, UniProt P43220); assay: binding to human GLP-1 receptor
Chain of human GLP-1 receptor (P43220 24-463): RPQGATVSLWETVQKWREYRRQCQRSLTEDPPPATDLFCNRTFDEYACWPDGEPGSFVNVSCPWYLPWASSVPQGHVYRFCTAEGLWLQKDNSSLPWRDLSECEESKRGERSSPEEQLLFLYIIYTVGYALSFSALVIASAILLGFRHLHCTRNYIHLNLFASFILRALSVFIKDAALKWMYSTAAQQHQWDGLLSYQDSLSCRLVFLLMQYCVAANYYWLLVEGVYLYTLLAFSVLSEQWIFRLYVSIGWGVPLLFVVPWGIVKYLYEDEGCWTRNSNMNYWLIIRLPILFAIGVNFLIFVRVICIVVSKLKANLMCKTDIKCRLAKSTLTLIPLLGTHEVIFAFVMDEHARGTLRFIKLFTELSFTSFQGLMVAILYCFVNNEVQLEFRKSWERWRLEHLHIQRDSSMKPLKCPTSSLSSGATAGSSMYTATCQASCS

[3] = biological target: human glucagon receptor (Homo sapiens, UniProt P47871); assay: binding to human glucagon receptor
Chain of human glucagon receptor (P47871 26-477): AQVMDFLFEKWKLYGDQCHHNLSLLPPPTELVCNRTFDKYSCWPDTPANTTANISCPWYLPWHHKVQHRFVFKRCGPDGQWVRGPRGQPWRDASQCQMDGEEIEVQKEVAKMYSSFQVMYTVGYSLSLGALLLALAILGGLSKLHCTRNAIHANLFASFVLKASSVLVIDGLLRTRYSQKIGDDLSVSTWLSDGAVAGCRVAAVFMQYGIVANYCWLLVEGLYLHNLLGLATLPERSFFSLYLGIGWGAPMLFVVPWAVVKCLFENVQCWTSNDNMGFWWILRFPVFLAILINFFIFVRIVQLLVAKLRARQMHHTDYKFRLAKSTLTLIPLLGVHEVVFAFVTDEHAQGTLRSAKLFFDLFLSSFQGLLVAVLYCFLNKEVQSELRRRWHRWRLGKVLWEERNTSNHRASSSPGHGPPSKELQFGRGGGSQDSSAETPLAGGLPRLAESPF

[4] = 10 μg/kg b.i.d. s.c., eight weeks, vehicle increased by 0.2 points
[5] = 30 μg/kg twice daily s.c., eight weeks, AMLN diet mice (FIG. 3A study)
[6] = 10 μg/kg b.i.d. s.c., eight weeks, AMLN diet mice (FIG. 1A study)

Question: What does the source list for “H-dS-Q-G-T-F-T-S-D-L-S-K-Q-K(γE-Palm)-ESKAAQDFIEWLKAGGPSSGAPPPS-NH2 (HXQGTFTSDLSKQKESKAAQDFIEWLKAGGPSSGAPPPS; D-Ser1; K14 γE-palmitoyl; C-terminal amide; Exendin-4 analogue; MOD_RES (2)..(2) Xaa is D-Ser; MOD_RES (14)..(14) Lys is functionalized at the amino side chain group as Lys((S)-4-carboxy-4-hexadecanoylamino-butyryl); MOD_RES (39)..(39) amidated C-terminus) [SEQ ID NO.: 1, exendin-4 derivative of formula A, dual GLP-1/glucagon receptor agonist]”?
Answer: decrease in mean NAS vs baseline [1, 4]: 2.0 points; weight loss vs baseline ([1]; 10 μg/kg twice daily s.c., eight weeks, AMLN diet mice (FIG. 3A study), vehicle gained 0.5 grams): 3.0 grams; weight loss vs baseline (% of body weight) ([1]; 10 μg/kg twice daily s.c., eight weeks, AMLN diet mice (FIG. 3A study), vehicle gained 1.3%): 8.5%; decrease in mean NAS vs baseline ([1]; 30 μg/kg b.i.d. s.c., eight weeks, vehicle increased by 0.2 points, p<0.05 vs liraglutide): 1.9 points; weight loss vs baseline [1, 5]: 3.9 grams; weight loss vs baseline (% of body weight) [1, 5]: 11.4%; change in fibrosis vs baseline ([1]; both doses, 10 and 30 μg/kg b.i.d. s.c., eight weeks (FIG. 3E)): trend to an improvement in fibrosis; binding to human GLP-1 receptor [2]: good binding; binding to human glucagon receptor [3]: good binding

Question: With “H-dS-Q-G-T-F-T-S-D-L-S-K-Q-K(γE-Palm)-DSRRAQDFIEWLKNGGPSSGAPPPS-NH2 (HXQGTFTSDLSKQKDSRRAQDFIEWLKNGGPSSGAPPPS; D-Ser1; K14 γE-palmitoyl; C-terminal amide; Exendin-4 analogue; MOD_RES (2)..(2) Xaa is D-Ser; MOD_RES (14)..(14) Lys is functionalized at the amino side chain group as Lys((S)-4-carboxy-4-hexadecanoylamino-butyryl); MOD_RES (39)..(39) amidated C-terminus) [SEQ ID NO.: 2, exendin-4 derivative of formula A, dual GLP-1/glucagon receptor agonist]” as the substance, how does the “mean fibrosis stage after treatment” value ([1]; 10 μg/kg b.i.d. s.c., after eight weeks, baseline 1.2, vehicle group did not change) read?
Answer: 0.6

Question: And the “components of NAS (steatosis, inflammation and hepatocyte ballooning scores)” value ([1]; 10 μg/kg b.i.d. s.c., eight weeks (FIG. 1D))?
Answer: reduction in score was seen for all three components of NAS

Question: And the “weight loss vs vehicle” value [1, 6]?
Answer: 4.9 grams

Question: What about the “weight loss vs vehicle, % of body weight at baseline” value [1, 6] of the same substance?
Answer: 13.5%

Question: And the “weight loss vs baseline” value ([1]; 10 μg/kg b.i.d. s.c., eight weeks, AMLN diet mice (FIG. 1A study), vehicle gained 2.1 grams)?
Answer: 2.8 gram

Question: And the “weight loss vs baseline (% of body weight)” value ([1]; 10 μg/kg b.i.d. s.c., eight weeks, AMLN diet mice (FIG. 1A study), vehicle gained 5.6%)?
Answer: 7.7%

Question: What about the “reduction in NAFLD activity score (NAS) vs baseline” value [1, 4] of the same substance?
Answer: 2.3 points

Question: Which results are given for “H-dS-Q-G-T-F-T-S-D-L-S-K-Q-K(γE-Stea)-DEQLAKDFIEWLKAGGPSSGAPPPS-NH2 (H[dS]QGTFTSDLSKQK([γGlu-Stea])DEQLAKDFIEWLKAGGPSSGAPPPS-NH2) [SEQ ID NO.: 3, exendin-4 derivative of formula A, dual GLP-1/glucagon receptor agonist]”?
Answer: weight loss vs baseline ([1]; 30 μg/kg q.d. s.c., eight weeks, AMLN diet mice (FIG. 2A study), vehicle gained 1.1 grams): 3.9 grams; weight loss vs baseline (% of body weight) ([1]; 30 μg/kg q.d. s.c., eight weeks, AMLN diet mice (FIG. 2A study), vehicle gained 3.0%): 10.5%; change in mean fibrosis score vs baseline ([1]; 30 μg/kg q.d. s.c., eight weeks, vehicle increased by 0.1 points): remained unchanged; decrease in NAS vs baseline ([1]; 30 μg/kg q.d. s.c., eight weeks, vehicle increased by 0.8 points, p<0.001 vs vehicle, p<0.05 vs liraglutide): 1.6 points
